Reference: PubChem BioAssay (NCI)
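Each compound was tested at five concentrations against cells in 96-well plates for 48 hours. GI50 = concentration required for 50% inhibition of growth. Definition used: TGI = concentration required for complete inhibition of growth.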

Tests used:
Experiment in all cases: inhibition of tumour cell growth, NCI panel, 48 h
[1] = system: 786-0 renal
[2] = system: A498 renal
[3] = system: A549 NSCLC
[4] = system: ACHN renal
[5] = system: BT-549 breast
[6] = system: CAKI-1 renal
[7] = system: CCRF-CEM leukemia
[8] = system: COLO 205 colon
[9] = system: DU-145 prostate
[10] = system: EKVX NSCLC
[11] = system: HCC-2998 colon
[12] = system: HCT-116 colon
[13] = system: HCT-15 colon
[14] = system: HL-60(TB) leukemia
[15] = system: HOP-62 NSCLC
[16] = system: HOP-92 NSCLC
[17] = system: HS 578T breast
[18] = system: HT29 colon
[19] = system: IGROV1 ovarian
[20] = system: K-562 leukemia
[21] = system: KM12 colon
[22] = system: LOX IMVI melanoma
[23] = system: M14 melanoma
[24] = system: MALME-3M melanoma
[25] = system: MCF7 breast
[26] = system: MDA-MB-231 breast
[27] = system: MDA-MB-435
[28] = system: MOLT-4 leukemia
[29] = system: NCI-H226 lung
[30] = system: NCI-H23 lung
[31] = system: NCI-H460 lung
[32] = system: NCI-H522 lung
[33] = system: NCI/ADR-RES ovarian
[34] = system: OVCAR-3 ovarian
[35] = system: OVCAR-4 ovarian
[36] = system: OVCAR-5 ovarian
[37] = system: OVCAR-8 ovarian
[38] = system: PC-3 prostate
[39] = system: RPMI-8226 leukemia
[40] = system: RXF 393 renal
[41] = system: SF-268 CNS
[42] = system: SF-295 CNS
[43] = system: SF-539 CNS
[44] = system: SK-MEL-2 melanoma
[45] = system: SK-MEL-28 melanoma
[46] = system: SK-MEL-5 melanoma
[47] = system: SK-OV-3 ovarian
[48] = system: SN12C renal
[49] = system: SNB-19 CNS
[50] = system: SNB-75 CNS
[51] = system: SR leukemia
[52] = system: SW-620 colon
[53] = system: T-47D breast
[54] = system: TK-10 renal
[55] = system: U251 CNS
[56] = system: UACC-257 melanoma
[57] = system: UACC-62 melanoma
[58] = system: UO-31 renal
[59] = system: MDA-N

`COc1ccc(CNc2nc(NCc3ccc(OC)cc3)nc(NC3CCCC3)n2)cc1` gave a TGI [1] greater than 68500 nM, a GI50 [2] of 62100 nM and a TGI [2] greater than 100000 nM. The TGI [3] was greater than 67700 nM, the TGI [4] was greater than 100000 nM and the TGI [5] was greater than 31800 nM. For the same compound, the TGI [6] was greater than 84100 nM, the TGI [7] was greater than 100000 nM and the TGI [8] was greater than 25100 nM. For the same compound, the TGI [9] was greater than 40700 nM, the TGI [10] was greater than 100000 nM and the GI50 [11] was 3670 nM. The TGI [11] was 38600 nM, the TGI [12] was 10100 nM and the TGI [13] was greater than 20600 nM. It also gave a TGI [14] greater than 28300 nM, a TGI [15] greater than 100000 nM and a TGI [16] greater than 100000 nM. The TGI [17] was greater than 21300 nM, the TGI [18] was 13600 nM and the TGI [19] was greater than 33700 nM. For the same compound, the TGI [20] was greater than 24700 nM, the TGI [21] was 1590 nM and the TGI [22] was 76900 nM. The TGI [23] was greater than 100000 nM, the TGI [24] was greater than 100000 nM and the TGI [25] was 9830 nM. The TGI [26] was greater than 31200 nM, the TGI [27] was 4950 nM and the TGI [28] was greater than 100000 nM. For the same compound, the TGI [29] was greater than 55800 nM, the TGI [30] was greater than 22200 nM and the TGI [31] was greater than 33800 nM. For the same compound, the TGI [32] was greater than 19900 nM, the TGI [33] was 13400 nM and the TGI [34] was greater than 23000 nM. The TGI [35] was greater than 100000 nM, the TGI [36] was greater than 44700 nM and the TGI [37] was 20000 nM. The TGI [38] was greater than 100000 nM, the TGI [39] was greater than 30400 nM and the TGI [40] was 3610 nM. It also gave a TGI [41] greater than 100000 nM, a TGI [42] greater than 31500 nM and a TGI [43] of 11400 nM. It also gave a TGI [44] greater than 100000 nM, a TGI [45] greater than 100000 nM and a TGI [46] of 14000 nM. The TGI [47] was greater than 100000 nM, the TGI [48] was greater than 100000 nM and the TGI [49] was greater than 100000 nM. The TGI [50] was greater than 100000 nM, the TGI [51] was greater than 100000 nM and the TGI [52] was greater than 100000 nM. For the same compound, the TGI [53] was greater than 100000 nM, the TGI [54] was greater than 26100 nM and the TGI [55] was greater than 25300 nM. The TGI [56] was greater than 100000 nM, the TGI [57] was greater than 59600 nM and the TGI [58] was greater than 91100 nM.

In the case of `COc1ccc2c(O)c(/C=C3\N=Nc4ncccc43)oc2c1C[C@@H]1CCNC[C@H]1F`, the GI50 [1] was 362 nM, the TGI [1] was 1590 nM and the GI50 [2] was 1390 nM. For the same compound, the TGI [2] was 3660 nM, the GI50 [3] was 1310 nM and the TGI [3] was 3930 nM. The GI50 [4] was 510 nM, the TGI [4] was 2830 nM and the TGI [5] was 2530 nM. It also gave a GI50 [6] of 848 nM, a TGI [6] of 6470 nM and a GI50 [7] of 141 nM. The TGI [7] was 993 nM, the GI50 [8] was 323 nM and the TGI [8] was 1430 nM. For the same compound, the GI50 [9] was 809 nM, the TGI [9] was 4190 nM and the GI50 [10] was 426 nM. It also gave a TGI [10] of 2560 nM, a GI50 [11] of 1670 nM and a TGI [11] of 4090 nM. The GI50 [12] was 118 nM, the TGI [12] was 1210 nM and the GI50 [13] was 234 nM. The TGI [13] was 1870 nM, the GI50 [14] was 314 nM and the TGI [14] was 1140 nM. It also gave a GI50 [15] of 336 nM, a TGI [15] of 2940 nM and a GI50 [16] of 4700 nM. The TGI [16] was 9210 nM, the GI50 [17] was 1580 nM and the TGI [17] was 5780 nM. The GI50 [18] was 307 nM, the TGI [18] was 2090 nM and the GI50 [19] was 1790 nM. It also gave a TGI [19] of 8110 nM, a GI50 [20] of 442 nM and a TGI [20] of 1790 nM. The GI50 [21] was 314 nM, the TGI [21] was 1400 nM and the GI50 [22] was 318 nM. It also gave a TGI [22] of 972 nM, a GI50 [23] of 557 nM and a TGI [23] of 2200 nM. The GI50 [24] was 1890 nM, the TGI [24] was 5230 nM and the GI50 [25] was 118 nM. It also gave a TGI [25] of 1090 nM, a GI50 [26] of 728 nM and a TGI [26] of 2770 nM. The GI50 [27] was 1210 nM, the TGI [27] was 2790 nM and the GI50 [28] was 181 nM. It also gave a TGI [28] of 544 nM, a GI50 [29] of 256 nM and a TGI [29] of 3550 nM. The GI50 [30] was 861 nM, the TGI [30] was 3510 nM and the GI50 [31] was 617 nM. The TGI [31] was 2050 nM, the GI50 [32] was 128 nM and the TGI [32] was 1350 nM. The GI50 [33] was 915 nM, the TGI [33] was 4310 nM and the GI50 [34] was 485 nM. It also gave a TGI [34] of 2740 nM, a GI50 [35] of 1410 nM and a TGI [35] of 3450 nM. The GI50 [36] was 1020 nM, the TGI [36] was 8290 nM and the GI50 [37] was 277 nM. It also gave a TGI [37] of 1600 nM, a GI50 [38] of 530 nM and a TGI [38] of 3620 nM. The GI50 [39] was 266 nM, the TGI [39] was 984 nM and the GI50 [40] was 253 nM. For the same compound, the TGI [40] was 984 nM, the GI50 [41] was 294 nM and the TGI [41] was 1390 nM. For the same compound, the GI50 [42] was 723 nM, the TGI [42] was 4030 nM and the GI50 [43] was 428 nM. The TGI [43] was 1990 nM, the GI50 [44] was 1930 nM and the TGI [44] was 4040 nM. For the same compound, the GI50 [45] was 2220 nM, the TGI [45] was 7250 nM and the GI50 [46] was 869 nM. It also gave a TGI [46] of 8350 nM, a GI50 [47] of 2330 nM and a TGI [47] of 7710 nM. The GI50 [48] was 458 nM, the TGI [48] was 2220 nM and the GI50 [49] was 541 nM. It also gave a TGI [49] of 7590 nM, a GI50 [50] of 378 nM and a TGI [50] of 1940 nM. The TGI [51] was 193 nM, the GI50 [52] was 340 nM and the TGI [52] was 1120 nM. For the same compound, the GI50 [53] was 2320 nM, the TGI [53] was 11800 nM and the GI50 [54] was 2110 nM. The TGI [54] was 5910 nM, the GI50 [55] was 299 nM and the TGI [55] was 1200 nM. For the same compound, the GI50 [56] was 2820 nM, the TGI [56] was 9460 nM and the GI50 [57] was 1320 nM. For the same compound, the TGI [57] was 3790 nM, the GI50 [58] was 1610 nM and the TGI [58] was 5180 nM.

`CC(O)(C#N)CC(O)(C(F)(F)Cl)C(F)(F)Cl` (configuration not stated) gave a TGI [2] greater than 10000 nM, a TGI [3] greater than 10000 nM and a TGI [4] greater than 10000 nM. For the same compound, the TGI [6] was greater than 10000 nM, the TGI [8] was greater than 10000 nM and the TGI [9] was greater than 10000 nM. It also gave a TGI [10] greater than 10000 nM, a TGI [12] greater than 10000 nM and a TGI [13] greater than 10000 nM. The TGI [16] was greater than 10000 nM, the TGI [18] was greater than 10000 nM and the TGI [19] was greater than 10000 nM. It also gave a TGI [21] greater than 10000 nM, a TGI [23] greater than 10000 nM and a TGI [26] greater than 10000 nM. It also gave a TGI [27] greater than 10000 nM, a TGI [59] greater than 10000 nM and a TGI [29] greater than 10000 nM. The TGI [30] was greater than 10000 nM, the TGI [33] was greater than 10000 nM and the TGI [34] was greater than 10000 nM. It also gave a TGI [35] greater than 10000 nM, a TGI [36] greater than 10000 nM and a TGI [37] greater than 10000 nM. The TGI [38] was greater than 10000 nM, the TGI [40] was greater than 10000 nM and the TGI [41] was greater than 10000 nM. It also gave a TGI [42] greater than 10000 nM, a TGI [43] greater than 10000 nM and a TGI [45] greater than 10000 nM. It also gave a TGI [46] greater than 10000 nM, a TGI [48] greater than 10000 nM and a TGI [49] greater than 10000 nM. The TGI [50] was greater than 10000 nM, the TGI [52] was greater than 10000 nM and the TGI [54] was greater than 10000 nM. It also gave a TGI [55] greater than 10000 nM and a TGI [58] greater than 10000 nM.
